Experimental data from paper PMC5469451, “Identification of compounds that suppress Toxoplasma gondii tachyzoites and bradyzoites” (PLoS ONE, 2017).
Where two headings read alike, the source gives them in different places.

What was measured:
HFF cells [1] = assay: Host cell viability in bradyzoite differentiation condition; format: cell-based, human
Procedure: To evaluate the host cell viability in bradyzoite differentiation condition, HFF cells were incubated for 48 h in DMEM containing 25 mM HEPES pH 8.1 and 1% FBS and measured the viability as described above.

[2] = Host cell cytotoxicity assay (Cell-Titer Glo), Vero cells; format: cell-based; details: African green monkey; 10 μM, 48 h, Vero cells; DMSO = 100%; read-out: Host Viability (%)
Procedure: Host cells were treated with compounds at the same concentration used for screening (i.e., 0.5% DMSO and 10 μM compound). Vero cells and HFF cells were both used as host cells because both cell types were used for the parasite screening. After incubation for 48 h in DMEM supplemented with 5% FBS, L-glutamine, penicillin, and streptomycin, cell viabilities were measured by using a Cell-Titer Glo kit (Promega) following the manufacturer’s instructions. Control wells were treated with DMSO alone in culture medium to calculate the 100% viability for each cell type.

[3] = tested on: RH-2F intracellular parasites in HFF cells; assay: Intracellular parasite growth after invasion (β-galactosidase); format: cell-based, Toxoplasma gondii; details: uninvaded parasites washed away, 48 h; 1.0 μM hydroxyzine, 2.5 μM tanshinone IIA, 25 mg/ml DS10
Procedure: (§1) To measure the effects of tanshinone IIA and hydroxyzine on intracellular parasite growth, parasites were allowed to invade for 2 h, uninvaded parasites were washed away, and medium with compounds was added. After 48 h, the plates were frozen at -80°C. Plates were then thawed just prior to the measurement of beta-galactosidase activity. Beta-Glo (Promega) was used to measure β-galactosidase activity following the manufacturer’s instructions.

[4] = tested on: PLK/DLUC_1C9 in vitro-induced bradyzoites in HFF cells; assay: Effect on in vitro-induced bradyzoites (Dual-Glo firefly luciferase, BAG1 promoter); format: cell-based, Toxoplasma gondii; details: 3 days bradyzoite induction, then 10, 5, 2.5, 1 μM for 48 h; relative to DMSO
Procedure: To measure the effect of tanshinone IIA and hydroxyzine on in vitro-induced bradyzoites, we used PLK/DLUC_ 1C9 parasites and the Dual-Glo luciferase assay. Briefly, HFF cells in 96-well plates were infected with 1 x 10^4 parasites/well and incubated for 3 days with ambient CO2 condition in DMEM containing 25 mM HEPES pH 8.1 and 1% FBS to induce bradyzoites. Induced bradyzoites were treated with 10, 5, 2.5, and 1 μM compounds under bradyzoite-inducing conditions. After 48 h, luciferase activities were measured by using the Dual-Glo assay system (Promega) and normalized by host cell number.

[5] = tested on: PruΔku80Δhxgprt in HFF cells; assay: Immunofluorescence-based assay on spontaneously induced bradyzoites; format: cell-based, Toxoplasma gondii; details: 10, 2, 0.4, 0.08 μM, 48 h; for Bradyzoite differentiation (GFP-positive PV rate): compared with DMSO
Procedure: PruΔku80Δhxgprt, which expresses GFP under the control of a bradyzoite-specific gene LDH2 promoter, [13] was used. HFF host cells were seeded to a 96-well glass bottom plate (MGB096-1-2-LG-L, Brooks Automation, MA, USA) and cultured until confluent. Parasites were freshly lysed by passing them through 27 G needles and were purified by passing them through a 5-μm-pore filter. Five thousand parasites in 100 μL of culture medium were added and mixed with an equal volume of compound-containing medium to give final drug concentrations of 10, 2, 0.4, and 0.08 μM in 0.2% DMSO. After incubation at room temperature for 10 min, the infected host cells were incubated for 48 h at 37°C in a 5% CO2 incubator. After incubation, the cells were fixed with 4% paraformaldehyde in PBS for 20 min, quenched, and permeabilized with 0.2 M glycine and 0.2% TritonX-100 in PBS for 20 min, and then blocked with 3% BSA and 0.1% Tween 20 in PBS (blocking buffer); each procedure was performed at room temperature and was followed by washes with PBS three times. All parasites were stained with an anti-Toxoplasma mouse antibody (antisera produced in ME49-infected mice), and bradyzoites were detected with an anti-GFP rabbit monoclonal antibody (Life Technologies). Secondary antibodies for mouse (Alexa633 conjugated) and rabbit (Alexa488 conjugated) and DAPI were used to develop the fluorescent signal. Stained cells on 96-well plates were analyzed with a CompuCyte iCys Research Imaging Cytometer (Beckman Coulter, IN, USA).

[6] = tested on: RH-2F tachyzoites (type I strain) in HFF cells; assay: Confirmatory screening: RH-2F β-galactosidase growth assay in HFF cells; format: cell-based, Toxoplasma gondii; details: for IC50: RH-2F in HFF cells, β-galactosidase assay, read-out: IC50 for parasite growth (95% CI)
Procedure: In the confirmatory screening, we utilize an RH strain β-galactosidase reporter parasite termed RH-2F (a type I strain). Briefly, RH-2F parasites were purified from freshly lysed infected host cells and used to infect confluent HFF cells cultured in 96-well plates. Five hundred parasites were added to each well, along with each test compound and 50 μL of culture medium. Plates were then incubated for 10 min at room temperature followed by an incubation at 37°C for 48 h in a CO2 incubator.
as §1

[7] = Host cell cytotoxicity assay (Cell-Titer Glo), HFF cells; format: cell-based, human; details: human, HFF cells, 2.5 μM, 48 h, HFF cells, read-out: Host cell viability (%)
Procedure: (§2) Vero cells and HFF cells were both used as host cells because both cell types were used for the parasite screening. After incubation for 48 h in DMEM supplemented with 5% FBS, L-glutamine, penicillin, and streptomycin, cell viabilities were measured by using a Cell-Titer Glo kit (Promega) following the manufacturer’s instructions. Control wells were treated with DMSO alone in culture medium to calculate the 100% viability for each cell type.

HFF cells [8] = assay: as above; format: cell-based, human; details: 25 μM, 48 h, HFF cells, compared with DMSO
Procedure: as §2

[9] = tested on: PLK/DLUC_1C9 tachyzoites in Vero cells; assay: Primary screening: T. gondii growth assay, Renilla luciferase; format: cell-based, Toxoplasma gondii; details: Toxoplasma gondii; 10 μM, 48 h, PLK/DLUC_1C9 in Vero cells; DMSO = 0%, 10 μM pyrimethamine = 100%; read-out: Parasite Inhibition (%)
Procedure: In the primary screening, purified PLK/DLULC_1C9 tachyzoites were incubated with Vero cells at a multiplicity of infection (MOI) of 0.5. After a 2-h incubation, the infected host cells were trypsinized to obtain a cell suspension and then these suspended infected cells were inoculated into 96-well optical bottom plates containing the compound library. Each well was inoculated with 2500 cells in 25 μL of culture medium. […] Following cell inoculation, each well therefore contained 0.5% DMSO and 10 μM compound. After 48 h of culture, Renilla luciferase activity was measured by using Renilla-Glo (Promega, WI, USA) following the manufacturer’s instructions. […] The Z’-value for each plate was calculated from the Renilla luciferase activity in the negative and positive control wells.

[10] = tested on: PLK/DLUC_1C9 parasites in HFF cells; assay: Bradyzoite differentiation assay, relative BAG1 promoter activity (Dual-Glo); format: cell-based, Toxoplasma gondii; details: 1 μM hydroxyzine, 2.5 μM tanshinone IIA; added 24 h after infection, 48 h treatment
Procedure: To measure bradyzoite induction activities of tanshinone IIA and hydroxyzine, PLK/DLUC_1C9 parasites were purified and then inoculated at a concentration of 2.0 x 10^4 parasites/well into 12-well plates containing confluent monolayers of HFF cells. Cells were incubated for 24 h after infection, then compounds were added, and the cells were incubated for 48 h. After incubation, the cells in each well were lysed using 200 μL of Passive Lysis Buffer (Promega) and the lysates were stored at -80°C. For the luciferase assay, 25 μL of lysate was used and the Renilla and firefly luciferase activities were measured by using Dual-Glo (Promega) according to the manufacturer’s instruction.

[11] = 2.5 μM, 48 h, RH-2F in HFF, compared with 10 μM pyrimethamine

SMILES | Host cell viability under the bradyzoite-inducing condition (HFF cells [1]; pH 8.1) | viability at 48 h, 10 µM [2] [%] | Parasite growth when compound added after 2 h invasion window [3] | Bradyzoite number (firefly luciferase under BAG1 promoter, normalized by host cell number) [4] | Parasite growth (total parasite vacuole size) [5] | Bradyzoite differentiation (GFP-positive PV rate) [5] | Parasite inhibition (%) [6, 11] [%] | inhibition at 25 µM ([6]; Toxoplasma gondii, 48 h, RH-2F in HFF, compared with 10 μM pyrimethamine, read-out: Parasite inhibition (%)) [%] | IC50 ([6]; Toxoplasma gondii) [µM] | viability at 48 h, 2.5 µM [7] [%] | Host cell viability (%) (HFF cells [8]) | Host cell viability (%) (HFF cells [8]; listed as hydroxyzine) | inhibition at 10 µM [9] [%] | Relative BAG1 promoter activity (bradyzoite ratio) compared with 5 μM pyrimethamine treatment [10] [%] | Host cell viability under the bradyzoite-inducing condition (HFF cells [1]; HFF, pH 8.1, 1% FBS, 48 h) | viability at 10 µM [2] [%] | inhibition at 2.5 µM ([6]; Toxoplasma gondii, HFF, 48 h, 2.5 μM, 48 h, RH-2F in HFF, compared with 10 μM pyrimethamine, read-out: Parasite inhibition (%)) [%] | inhibition at 25 µM ([6]; Toxoplasma gondii, HFF, 48 h, 48 h, RH-2F in HFF, compared with 10 μM pyrimethamine, read-out: Parasite inhibition (%)) [%] | viability at 2.5 µM [7] [%]
OCCOCCN1CCN(C(c2ccccc2)c2ccc(Cl)cc2)CC1 (stereo not shown) [Hydroxyzine] | did not affect the host cell viability | 101 | reduced parasite growth in a dose dependent manner | reduced the bradyzoite number | reduced parasite growth in a concentration-dependent manner | did not induce bradyzoite differentiation even at high concentrations | 100 | 107 | 1 | 102 | 100 | no effect on host cell viability | 97 | 0.4 | – | – | – | – | –
CCc1nc(N)nc(N)c1-c1ccc(Cl)cc1 [Pyrimethamine] | – | – | – | cannot reduce bradyzoite numbers | reduced parasite growth in a concentration-dependent manner | induced bradyzoite differentiation | – | – | – | – | – | – | – | – | – | – | – | – | –
Cc1coc2c1C(=O)C(=O)c1c-2ccc2c1CCCC2(C)C [Tanshinone IIA] | – | – | reduced parasite growth in a dose dependent manner | reduced the bradyzoite number | reduced parasite growth in a concentration-dependent manner | did not induce bradyzoite differentiation even at high concentrations | 55 | – | 2.5 | – | 75 | – | 91 | 4.7 | slightly reduced the host cell number | 83 | > 50 | 112 | 99
